Tests used:
Format in all cases: ADME, organism-based
[1] = (§1) Pharmacokinetic parameters for triamcinolone acetonide evaluated after intranasal administration of triamcinolone acetonide nasal spray.; parameters: dose 220 mcg, route intranasal, dose 110 to 440; conditions: human, in vivo, inhaled or intranasal, dosed compound id 47, dosed compound name TRIAMCINOLONE ACETONIDE, regimen Single dose, tissue Plasma
Homo sapiens = assay: as §1; parameters: dose 220 mcg, route intranasal, dose 110 to 440; conditions: in vivo, inhaled_or_intranasal, dose 220 mcg, dosed compound id 47, dosed compound name TRIAMCINOLONE ACETONIDE, regimen Single dose, route intranasal, tissue Plasma
[2] = Evaluation of pharmacokinetic parameters for triamcinolone acetonide following intravenous dosing of triamcinolone acetonide phosphate ester in adults.; conditions: human, in vivo, dosed compound id 470, dosed compound name TRIAMCINOLONE ACETONIDE PHOSPHATE ESTER, tissue Plasma

Tmax ([1]; dose 220 mcg, route intranasal): 1.5 h
half-life ([1]; dose 220 mcg, route intranasal): 3.1 h
Cmax [1]: 0.5 ng/mL
AUC ([1]; read-out: AUC(0 to inf)): 1.4 to 4.7 ng·h/mL
t1/2 (Homo sapiens): 3.1 h
Vd [2]: 99.5 L
clearance [2]: 753 mL/min
half-life [2]: 1.47 h
Compound: CC1(C)O[C@@H]2C[C@H]3[C@@H]4CCC5=CC(=O)C=C[C@]5(C)[C@@]4(F)[C@@H](O)C[C@]3(C)[C@]2(C(=O)CO)O1 [TRIAMCINOLONE ACETONIDE]

Reference: ChEMBL document CHEMBL3832045, “DailyMed|setid=14ed9edd-bfd3-4fa4-9293-66666f779ba3 | TRIAMCINOLONE ACETONIDE - triamcinolone acetonide spray, metered|Physicians Total Care, Inc”
